Laboratory results taken from article PMC4959752, “Pharmacokinetics in Wistar Rats of 5-[(4-Carboxybutanoyl)Amino]-2-Hydroxybenzoic Acid: A Novel Synthetic Derivative of 5-Aminosalicylic Acid (5-ASA) with Possible Anti-Inflammatory Activity” (PLoS ONE, 2016).
Where two headings read alike, the source gives them in different places.

Key:
CD1 mice = system: CD1 mice; parameters: method as in ref 37 = [37]; 37 OECD Guidelines for the Testing of Chemicals 425: Acute Oral Toxicity—Up-and-Down-Procedure (UDP). 2008.; details: acute toxicity; cited from earlier work
[1] = Pharmacokinetic study of C2 in Wistar rats (plasma, HPLC, non-compartmental analysis); assay type: in vivo; details: for k el: read-out: Ke (converted); for bioavailability: i.g. 100 mg/kg vs i.v. 50 mg/kg, read-out: F% orally (absolute oral bioavailability)
From the text: Prior to the studies (on the day of C2 administration), the Wistar rats (n = 6) were cannulated. For intravenous (i.v.) treatment, a 24 G catheter was placed in the right lateral tail vein (for blood collection), and another catheter was placed in the left (for C2 administration) lateral tail vein of the rat as follows: the animal was placed inside a trap (special acrylic stocks for rats), the rat tail was exposed, and the distal region of the tail was disinfected with 70% ethanol; the tail veins were then dilated using a heating pad (approximately 45°C). An assistant held the tail of the rat while the left lateral vein was located, and a 24 G catheter was then firmly inserted into the posterior third of the caudal vein of the animal, where it was fixed with adhesive tape (for intragastric and intraperitoneal studies, only one catheter was placed on the right for blood collection).
For the intravenous study, a single dose of 50 mg/kg C2 was administered through the 24 G catheter when the rat was inside the trap. For the intragastric (i.g) pharmacokinetic study, a second group of rats (n = 6) received a single dose of 100 mg/kg using a 20 G gavage needle (animals were provided with a standard diet 4 h after dosing). For the intraperitoneal (i.p.) treatment, a third group of rats (n = 6) was injected with 75 mg/kg C2. In all pharmacokinetic studies, approximately 250 μL of blood was collected in heparinized tubes from each rat via the catheter in the right lateral tail vein prior to dosing and 5, 10, 20, 30, 45, 60, 90, 120, 180, 240, 300, 360, 540, 720 and 1440 min after dosing. These blood samples were supplemented with an equal volume of 0.9% sodium chloride solution. Plasma (100 μL) was harvested by centrifuging the blood samples at 8,000 rpm for 15 min, and the plasma was then immediately processed for analysis.
The samples were prepared as follows: briefly, 450 μL of acetonitrile was added to 100 μL of rat plasma, and the mixture was vortexed for 5 min. Subsequently, 450 μL of methanol was added to the sample, which was then vortexed again and centrifuged to precipitate proteins. Subsequently, 10 μL of the supernatant was introduced into the HPLC system. The plasma concentrations of C2 were determined using an RP-HPLC with UV detection method that had previously been validated for pharmacokinetic studies and the complementary assays performed in this work.
The plasma concentration–time data obtained after the i.v., i.g., and i.p. administration of C2 were subjected to a non-compartmental analysis using statistical moment theory. The pharmacokinetic parameters of C2 were calculated using the Kinetica 5.0 software (Adept Scientific Ltd), including the maximum plasma concentration (Cmax), time to reach Cmax (Tmax), elimination half-life (t1/2), area under the plasma concentration-time curve from time zero to the last measurable concentration (AUC0-t), area under the plasma concentration-time curve from time zero to infinity (AUCtot), mean residence time (MRT), clearance (CL), and apparent volume of distribution (Vd).

MPO = system: MPO; parameters: method as in ref 34 = [34]; 34 Gutiérrez Sánchez M , Rosales-Hernández MC , Padilla-Martínez II , Correa-Basurto J , Mendieta-Wejebe JE . In vivo evaluation of two 5-aminosalicylic acid derivatives considered as potential therap; details: model of inflammation in the mouse ear; cited from earlier work
[2] = pharmacokinetic model (Kinetica 5.0), bi-exponential decline of plasma concentration
[3] = pharmacokinetic model (Kinetica 5.0), calculated
[4] = rat, plasma, ip, single dose (100 mg/kg in abstract, 75 mg/kg in methods), Wistar rats
[5] = rat, plasma, iv, single dose 50 mg/kg, Wistar rats
[6] = rat, plasma, i.g. (oral), single dose 100 mg/kg, Wistar rats

In the case of O=C(O)CCCC(=O)Nc1ccc(O)c(C(=O)O)c1 [C2, 5-[(4-carboxybutanoyl)amino]-2-hydroxybenzoic acid], the LD50 (CD1 mice) is given as greater than 2000 mg/kg, the “detection in the plasma” value ([1]; 6 h after administration) is given as “no longer detected” and the half-life ([1]; Wistar, rat, plasma, ip, 75 mg/kg, i.p., single dose (100 mg/kg in abstract, 75 mg/kg in methods), Wistar rats, read-out: t1/2 e) is given as 38 ± 3 min. It also gave a half-life ([1]; Wistar, rat, plasma, iv, 50 mg/kg, i.v., single dose 50 mg/kg, Wistar rats, read-out: t1/2 e (elimination half-life)) of roughly 33 min, a Tmax ([1]; Wistar, rat, plasma, iv, 50 mg/kg, single dose 50 mg/kg, Wistar rats) of 5 min and a half-life ([1]; Wistar, rat, plasma, pharmacokinetic model (Kinetica 5.0), read-out: elimination half-life α (t1/2α)) of 18 min. For the same molecule, the half-life ([1]; Wistar, rat, plasma, pharmacokinetic model (Kinetica 5.0), read-out: elimination half-life β (t1/2β)) was 62 min, the half-life ([1]; Wistar, rat, plasma, po, 100 mg/kg, i.g. (oral), single dose 100 mg/kg, Wistar rats, read-out: t1/2 e) was roughly 27 min and the Cmax ([1]; i.g. (oral), single dose 100 mg/kg, Wistar rats, plasma) was 2500 ± 300 ng/mL. The Ka ([1]; i.p., single dose (100 mg/kg in abstract, 75 mg/kg in methods), Wistar rats) was 1.2 ± 0.2 h⁻¹, the “Cp^0” value ([1]; i.v., single dose 50 mg/kg, Wistar rats) was 26900 ± 3700 ng/mL and the α [1, 2] was 0.037 min⁻¹. It also gave a β [1, 2] of 0.011 min⁻¹, a K12 [1, 3] of 0.008 min⁻¹ and a K21 [1, 3] of 0.022 min⁻¹. For the same molecule, the AUC [1, 4] was 12500 ng·h/mL, the MRT [1, 4] was 69 min and the Cmax ([1]; rat, plasma, ip, single dose (100 mg/kg in abstract, 75 mg/kg in methods), Wistar rats, read-out: Cmax) was 8700 ± 400 ng/mL. The k el [1, 4] was 0.00025 s⁻¹, the AUC [1, 5] was 20800 ng·h/mL and the MRT [1, 5] was 57 min. For the same molecule, the Vd [1, 5] was 2 ± 0.2 L/kg, the clearance [1, 5] was 13 ± 3 mL/min and the k el [1, 5] was 0.000361 s⁻¹. It also gave a bioavailability ([1]; rat, plasma, oral, Wistar rats) of roughly 13%, a bioavailability ([1]; rat, plasma, po, Wistar rats) of 13% and a Cmax ([1]; rat, plasma, po, intragastric administration, 100 mg/kg, Wistar rats (abstract), read-out: Cmax) of 2500 ng/mL. It also gave an AUC [1, 6] of 2620 ng·h/mL, an MRT [1, 6] of 49 min and a k el [1, 6] of 0.0005 s⁻¹. The “effect on catalytic activity of MPO” value (MPO) was “inhibited the catalytic activity of MPO”.
